Columns and labels:
microglia = assay: Functional profile of microglia in 6-OHDA rat models after prophylactic administration; type: in vivo; conditions: prophylactic i.p.
Protocol: Methods: Adult mature rodents were used in the study. […] Before prophylactic administration of the experimental drugs, the animals underwent an open field test to assay their general locomotor activity levels and anxiety. The prophylactic course consisted of 10 daily intraperitoneal injections of the drugs (in the case of combination drug, its components were administered at an interval of 2 hours). After the end of prophylactic course, Parkinson's disease was modelled in the animals. […] Ten days after the last (second) apomorphine test, the animals' behavioral responses were assessed in the open field test followed by euthanasia and analysis of functional (metabolic and phenotypic) profiles of phagocytes of different localization. Thus, the study of the functional profile of phagocytes in rat models of Parkinson's disease was performed on day 28 after the end of the course of prophylactic treatment with the experimental drugs. Resident peritoneal macrophages were isolated from sterile cell suspension of peritoneal exudate; enrichment of the suspension was carried out by 2-hour adhesion. Non-adherent and dead cells were separated by centrifugation. Functional characteristics of circulating phagocytes (monocytes and neutrophils) were evaluated in whole blood taken into a tube containing EDTA used as an anticoagulant. Mononuclear and polymorphonuclear phagocytes were analyzed on a flow cytofluorimeter using a gating method. Phagocytes of microglia were isolated using a Percoll density gradient. To assess the phenotypic profile of phagocytes, expression indices of the pan-phagocytic marker CD14 (co-receptor of the bacterial lipopolysaccharide) and the marker of alternative polarization of phagocytes CD206 (mannose receptor 1) were used. To characterize the metabolic profile, oxidative metabolism and phagocytic activity of microglia as well as the pathway of arginine metabolism were studied using flow cytometry and spectrometric methods respectively. FITC-labeled Staphylococcus aureus Wood 46 was used as the object of phagocytosis. The hemogram parameters were analyzed on the hematological analyzer Particle counter model PCE 210 (ERMA, Japan) adapted for the study of blood cells of rats and mice.

peritoneal macrophages = assay: Metabolic profile of nonsensitized mouse peritoneal macrophages in vitro; type: cell-based, mice of c57/B6 line; parameters: spontaneous production of reactive nitrogen species by PM: dose or concentration left out as unconfirmed
Protocol: Materials and methods: Peritoneal macrophages (PM) were isolated from the peritoneal cavity of male mice of c57/B6 line with an average body weight of 22 g without previous sensibilization. The metabolic profile of phagocytes was characterized by the arginine metabolic pathway (by the levels of arginase activity and NO synthesis measured using photocolorimetric methods), the level of formation of intracellular reactive oxygen species (ROS) by esterases and phagocytic activity measured using flow cytometry as well as the levels of NADH and NADPH oxidase activation, as determined in the NBT test. Duration of treatment of a standardized suspension of nonsensitized macrophages from the peritoneal cavity varied depending on the methodological characteristics of metabolic response. A 90 minute exposure to the drugs according to Kim D K, Pfeifer J. Surg Forum. 1977; 28:85-7 was used to analyze their effects on oxidative metabolism and phagocytic activity. An 18 hour exposure according to Lastra M D, et al., J Trace Elem Med Biol. 2001; 15(1):5-10 was used to analyze the effects on arginine metabolic pathway. To analyze the effects of the drugs under study on the induced (stimulated) metabolic activity of phagocytes, the cells were treated with lipopolysaccharide (LPS) from E. coli (Sigma, USA) according to Haddad J J. Mol Immunol. 2009; 47(2-3):205-14. doi: 10.1016/j.molimm.2009.09.034.

[1] = test system: neuronal nitric oxide synthase; assay: Neuronal nitric oxide synthase expression in astrocytes in LPS rat models; type: in vivo; conditions: sham operation and LPS-induced PD; 1.5 mg/kg
Protocol: On the 1st day of the experiment, rats were either operated to model hemi-parkinsonism or sham operated. From the 9th to the 18th day of the experiment, the animals were injected either deuterium-depleted water or the test substance, according to their allocation into groups, for 10 days. On the 8th day of the experiment (before initiation of treatment—apomorphine test I) and on the 21st day of the experiment (after the end of administering the test substance —apomorphine test II) the animals underwent an apomorphine test to analyze the development of hemi-parkinsonism which correlates with the number of destroyed dopaminergic neurons. In addition, a follow-up analysis of fecal water content was carried out, i.e., before the start of treatment on the 8th day after the operation, as well as on the 21st (after the end of treatment) and the 28th day (before autopsy). On the 24th day of the experiment, behavioral tests were carried out in all groups. All animals were weighed before autopsy. […]

^64Zn-enriched zinc aspartate [^64Zne-asp]
level of CD14 expression in microglia (microglia): increase | level of CD206 expression in microglia (microglia): increase | oxidative metabolism / ROS production of microglia versus intact animals (microglia): at the level of control intact animals | oxidative metabolism of microglia, higher than in control rat models of Parkinson's disease (microglia): twice | ROS generation compared with LPS treatment (peritoneal macrophages; 10 μg/ml, 90 min): more expressive stimulation | NO synthesis by bacterial LPS-stimulated PM (peritoneal macrophages; 18-hour exposure): statistically significant reduction | spontaneous production of reactive nitrogen species by PM (peritoneal macrophages; 18-hour exposure): statistically significant inhibition | arginase activity of PM (peritoneal macrophages; 18-hour treatment): multidirectional weak effect | phagocytic activity of nonsensitized PM (peritoneal macrophages; 90 min exposure): did not have a significant effect | spontaneous and LPS-stimulated ROS production by macrophages (peritoneal macrophages; 90 min treatment): moderate stimulating effect | spontaneous or induced activation of NADH and NADPH oxidases (NBT test) (peritoneal macrophages; 90 min treatment): did not have a statistically significant effect | expression of nitric oxide synthase enzyme in astrocytes [1]: increase
